Source: US20170121315A1, “HETEROBICYCLICALLY SUBSTITUTED 4-OXOBUTANE ACID DERIVATIVES AND USE THEREOF” (priority 2014, published 2017)

Legend:
Type in all cases: biochemical
[1] = molecular target: T1, MMP-8 (Homo sapiens, UniProt P22894); test: In vitro MMP-8 inhibition test; settings: human MMP-8
T1 construct: purchased R&D Systems 908-MP
Text: (§1) The MMP-mediated amidolytic cleavage of a suitable peptide substrate leads to an increase in fluorescent light here too. The signal intensity of the fluorescent light is directly proportional to the enzyme activity. The active concentration of a test compound at which half the enzyme is inhibited (50% signal intensity of the fluorescent light) is reported as the IC50 value.
(§2) Recombinant MMP-8 (R&D Systems, 908-MP) is chemically activated in accordance with the manufacturer's instructions using APMA. 1 μl of the test compound to be analysed (as a solution in DMSO, suitable concentrations e.g. 1 nM to 30 μM) is pipetted into 24 μl of activated enzyme (final concentration e.g. 0.5 nM) in reaction buffer (50 mM Tris/HCl pH 7.5, 10 mM CaCl2, 150 mM NaCl, 0.05% Brij®-35) in a white 384-hole microtiter plate (MTP). The enzymatic reaction is started by adding the intramolecularly quenched Mca-Pro-Leu-Gly-Leu-Dpa(Dnp)-Ala-Arg-NH2 substrate (final concentration e.g. 10 μM; R&D Systems, ES-001), so as to result in a total test volume of 50 μl. The course of the MMP-8 reaction is measured by measuring the fluorescence intensity (excitation 320 nm, emission 410 nm) over a suitable period of time (e.g. over 120 min at a temperature of 32° C.).

[2] = molecular target: T2, MMP-9 (Homo sapiens, UniProt P14780); test: In vitro MMP-9 inhibition test; settings: human MMP-9
T2 construct: purchased R&D Systems 911-MP
Text: as §1
as §2, with “MMP-9” for “MMP-8”, “911-MP)” for “908-MP)”, “0.1” for “0.5”

[3] = molecular target: T3, MMP-2 (Homo sapiens, UniProt P08253); test: In vitro MMP-2 inhibition test; settings: human MMP-2
T3 construct: purchased R&D Systems 902-MP
T3 sequence (P08253 110-660): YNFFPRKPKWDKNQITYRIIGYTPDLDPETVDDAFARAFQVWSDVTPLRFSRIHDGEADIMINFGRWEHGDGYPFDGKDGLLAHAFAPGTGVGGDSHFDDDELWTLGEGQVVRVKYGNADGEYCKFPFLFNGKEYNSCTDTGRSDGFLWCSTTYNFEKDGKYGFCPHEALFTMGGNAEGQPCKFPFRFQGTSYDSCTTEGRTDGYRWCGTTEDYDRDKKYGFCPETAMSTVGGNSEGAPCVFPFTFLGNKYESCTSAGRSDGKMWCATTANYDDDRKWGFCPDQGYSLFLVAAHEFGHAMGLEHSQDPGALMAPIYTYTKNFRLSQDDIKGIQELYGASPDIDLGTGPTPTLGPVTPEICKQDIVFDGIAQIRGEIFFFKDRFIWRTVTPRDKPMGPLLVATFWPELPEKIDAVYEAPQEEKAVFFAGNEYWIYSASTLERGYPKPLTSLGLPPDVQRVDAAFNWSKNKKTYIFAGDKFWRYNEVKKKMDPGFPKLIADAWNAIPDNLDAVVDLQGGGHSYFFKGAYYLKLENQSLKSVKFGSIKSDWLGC
Text: as §1
as §2, with “MMP-2” for “MMP-8”, “902-MP)” for “908-MP)”, “2” for “0.5”

[4] = molecular target: T4, MMP-14 (Homo sapiens, UniProt P50281); test: In vitro MMP-14 inhibition test; settings: human MMP-14
T4 construct: purchased R&D Systems 918-MP
Text: as §1
Recombinant MMP-14 (R&D Systems, 918-MP) is enzymatically activated in accordance with the manufacturer's instructions using recombinant furin (R&D Systems, 1503-SE). 1 μl of the test compound to be analysed (as a solution in DMSO, suitable concentrations e.g. 1 nM to 30 μM) is pipetted into 24 μl of activated enzyme (final concentration e.g. 0.5 nM) in reaction buffer (50 mM Tris/HCl pH 7.5, 10 mM CaCl2, 150 mM NaCl, 0.05% Brij®-35) in a white 384-hole microtiter plate (MTP). The enzymatic reaction is started by adding the intramolecularly quenched Mca-Lys-Pro-Leu-Gly-Leu-Dpa(Dnp)-Ala-Arg-NH2 substrate (final concentration e.g. 5 μM; R&D Systems, ES-010), so as to result in a total test volume of 50 μl. The course of the MMP-14 reaction is measured by measuring the fluorescence intensity (excitation 320 nm, emission 410 nm) over a suitable period of time (e.g. over 120 min at a temperature of 32° C.).

T1 sequence (P22894 101-467): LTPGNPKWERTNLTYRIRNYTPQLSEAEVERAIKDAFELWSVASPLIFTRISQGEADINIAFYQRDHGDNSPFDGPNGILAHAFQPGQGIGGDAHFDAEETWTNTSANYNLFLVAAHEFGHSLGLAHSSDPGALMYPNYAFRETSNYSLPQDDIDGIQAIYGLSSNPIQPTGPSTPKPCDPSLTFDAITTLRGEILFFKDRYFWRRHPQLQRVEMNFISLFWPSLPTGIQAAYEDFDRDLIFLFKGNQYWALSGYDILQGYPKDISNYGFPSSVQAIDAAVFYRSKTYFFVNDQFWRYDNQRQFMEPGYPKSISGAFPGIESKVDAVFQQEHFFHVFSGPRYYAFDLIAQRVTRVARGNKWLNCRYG
T2 sequence (P14780 107-707 limits assumed): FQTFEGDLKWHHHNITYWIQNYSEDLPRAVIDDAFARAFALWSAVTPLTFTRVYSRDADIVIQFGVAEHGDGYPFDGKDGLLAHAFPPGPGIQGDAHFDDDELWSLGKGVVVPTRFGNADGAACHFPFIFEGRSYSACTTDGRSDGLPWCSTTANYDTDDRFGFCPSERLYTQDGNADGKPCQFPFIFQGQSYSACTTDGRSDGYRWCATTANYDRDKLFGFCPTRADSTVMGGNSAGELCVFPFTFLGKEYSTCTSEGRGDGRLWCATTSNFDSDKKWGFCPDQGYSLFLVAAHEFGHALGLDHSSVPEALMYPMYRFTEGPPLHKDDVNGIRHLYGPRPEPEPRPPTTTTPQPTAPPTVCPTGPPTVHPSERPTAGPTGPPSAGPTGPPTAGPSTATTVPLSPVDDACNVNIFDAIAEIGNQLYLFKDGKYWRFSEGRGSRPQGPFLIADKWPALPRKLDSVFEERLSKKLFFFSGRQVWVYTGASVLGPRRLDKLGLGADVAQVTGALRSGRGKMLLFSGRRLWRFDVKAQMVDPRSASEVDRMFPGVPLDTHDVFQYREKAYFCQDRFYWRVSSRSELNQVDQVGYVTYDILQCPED

Structure (SMILES) | IC50 [1] [µM] | IC50 [2] [µM] | IC50 [3] [µM] | IC50 [4] [µM]
CCCCCCOc1ccc2c(C(=O)CC(CCn3nnc4ccccc4c3=O)C(=O)O)coc2c1 (single isomer, unassigned; (+)) [Example 100, (+)-4-[6-(Hexyloxy)-1-benzofur-3-yl]-4-oxo-2-[2-(4-oxo-1,2,3-benzotriazin-3(4H)-yl)ethyl]butanoic acid] | 2.8 | 0.074 | 0.14 | 4
O=C(CC(CCn1nnc2ccc(C(F)(F)F)cc2c1=O)C(=O)O)c1noc2cc(OCc3ccccc3)ccc12 (racemic) [Example 154, (+/−)-4-[6-(Benzyloxy)-1,2-benzoxazol-3-yl]-4-oxo-2-{2-[4-oxo-6-(trifluoromethyl)-1,2,3-benzotriazin-3(4H)-yl]ethyl}butanoic acid] | 0.97 | 0.25 | 5.6 | 26
O=C(CC(CCn1nnc2ccccc2c1=O)C(=O)O)c1coc2cc(OCCC3CCOCC3)ccc12 (racemic) [Example 74, (+/−)-4-Oxo-2-[2-(4-oxo-1,2,3-benzotriazin-3(4H)-yl)ethyl]-4-{6-[2-(tetrahydro-2H-pyran-4-yl)ethoxy]-1-benzofur-3-yl}butanoic acid] | 0.37 | 0.18 | 0.02 | 1.4
O=C(CC(CCn1nnc2ccccc2c1=O)C(=O)O)c1onc2cc(OCc3ccccc3)ccc12 (racemic) [Example 156, (+/−)-4-[6-(Benzyloxy)-2,1-benzoxazol-3-yl]-4-oxo-2-[2-(4-oxo-1,2,3-benzotriazin-3(4H)-yl)ethyl]butanoic acid] | 2.8 | 0.17 | 1.4 | 9.3
O=C(CC(CCn1nnc2ccccc2c1=O)C(=O)O)c1cc2cc(OCCCC(F)(F)F)ccc2o1 (single isomer, unassigned; enantiomer 2) [Example 13, (+)-4-Oxo-2-[2-(4-oxo-1,2,3-benzotriazin-3(4H)-yl)ethyl]-4-[5-(4,4,4-trifluorobutoxy)-1-benzofur-2-yl]butanoic acid (enantiomer 2)] | 5 | 3.8 | 1.3 | 17
CCCCCCCOc1ccc2cc(C(=O)CC(CCn3nnc4ccccc4c3=O)C(=O)O)oc2c1 (single isomer, unassigned; (+)) [Example 69, (+)-4-[6-(Heptyloxy)-1-benzofur-2-yl]-4-oxo-2-[2-(4-oxo-1,2,3-benzotriazin-3(4H)-yl)ethyl]butanoic acid acid] | > 40 | 13 | 2.9 | > 40
O=C(CC(CCn1nnc2ccccc2c1=O)C(=O)O)c1noc2cc(OCC3CCCCC3)ccc12 (racemic) [Example 153, (+/−)-4-[6-(Cyclohexylmethoxy)-1,2-benzoxazol-3-yl]-4-oxo-2-[2-(4-oxo-1,2,3-benzotriazin-3(4H)-yl)ethyl]butanoic acid] | 1.7 | 0.45 | 0.42 | 5.5
O=C(O)[C@H]1[C@H](Cn2nnc3ccc(C(F)(F)F)cc3c2=O)CC[C@@H]1C(=O)c1cc2cc(OCCc3ccccc3)ccc2o1 (racemic) [Example 157, (+/−)-(1RS,2SR,5RS)-2-{[4-Oxo-6-(trifluoromethyl)-1,2,3-benzotriazin-3(4H)-yl]methyl}-5-{[5-(2-phenylethoxy)-1-benzofur-2-yl]carbonyl}cyclopentanecarboxylic acid (racemate)] | 0.15 | 0.19 | 0.88 | 0.7
CCCCCOc1ccc2c(C(=O)CC(CCn3nnc4ccccc4c3=O)C(=O)O)coc2c1 (racemic) [Example 89, (+/−)-4-Oxo-2-[2-(4-oxo-1,2,3-benzotriazin-3(4H)-yl)ethyl]-4-[6-(pentyloxy)-1-benzofur-3-yl]butanoic acid] | 6.7 | 0.23 | 0.29 | 13
CCCCCCCOc1ccc2oc(C(=O)CC(CCn3nnc4ccccc4c3=O)C(=O)O)cc2c1 (racemic) [Example 31, (+/−)-4-[5-(Heptyloxy)-1-benzofur-2-yl]-4-oxo-2-[2-(4-oxo-1,2,3-benzotriazin-3(4H)-yl)ethyl]butanoic acid] | 35 | 9.7 | 4.4 | > 40
O=C(CC(CCn1nnc2ccccc2c1=O)C(=O)O)c1cc2cc(OCc3ccc(F)cc3)ccc2o1 (single isomer, unassigned; (+)) [Example 23, (+)-4-{5-[(4-Fluorobenzyl)oxy]-1-benzofur-2-yl}-4-oxo-2-[2-(4-oxo-1,2,3-benzotriazin-3(4H)-yl)ethyl]butanoic acid] | 6.3 | 13 | 1.9 | 15
O=C(CC(CCn1nnc2ccccc2c1=O)C(=O)O)c1cc2cc(OCCc3ccccc3Cl)ccc2o1 (racemic) [Example 1, (+/−)-4-{5-[2-(2-Chlorophenyl)ethoxy]-1-benzofur-2-yl}-4-oxo-2-[2-(4-oxo-1,2,3-benzotriazin-3(4H)-yl)ethyl]butanoic acid] | > 40 | > 40 | > 40 | > 40
O=C(C[C@H](CCn1nnc2ccccc2c1=O)C(=O)O)c1noc2cc(OCC3CCOCC3)ccc12 (single isomer, unassigned; enantiomer 2) [Example 135] | 0.17 | 1.7 | 0.27 | 3.5
O=C(CC(CCn1nnc2ccccc2c1=O)C(=O)O)c1coc2cc(OCC3CCCC3)ccc12 (single isomer, unassigned; (+)) [Example 80, (+)-4-[6-(Cyclopentylmethoxy)-1-benzofur-3-yl]-4-oxo-2-[2-(4-oxo-1,2,3-benzotriazin-3(4H)-yl)ethyl]butanoic acid] | 0.44 | 0.28 | 0.49 | 1.9
